Results on 5 compounds are retold here after PMC4490394 (Scientific Reports, 2015).

Usually Kp stands for the ratio of the level in a tissue or fluid to that in plasma or blood.

One series relates to VCaP cells. Nature of the series: VCaP proliferation assay (WST-1). Format: cell-based. The note with it: Homo sapiens, 96 h.
Series [1] is described as follows: Brain penetrance, brain/plasma ratio from AUC0-24. Type of series: in vivo. The note with it: male, BALB/c or Balb/cOlaHsd nude, mouse, mice, single oral dose of 10 mg/kg, based on AUC0–24.
In another series the test system is serum testosterone. Nature of the series: Serum testosterone in intact nude mice bearing orthotopic VCaP tumors. Format: in vivo. As to conditions: 20 mg/kg qd oral, 3 weeks, p < 0.05 vs vehicle. Here is the method: One million VCaP cells in 20 μL of RPMI-1640 medium were orthotopically injected into the dorsal prostate lobes of athymic nude male mice (7 weeks old from Harlan Winkelman, France). Tumor growth was followed by measuring serum PSA (ProStatus™ PSA EQM Kits, Wallac, Finland). […] At autopsy, blood samples were collected by heart puncture, clotted overnight at +4 °C, and centrifuged. For serum testosterone determination, 25-μL aliquots were extracted twice with 2 mL of diethyl ether and evaporated under nitrogen to dryness. The residues were reconstituted in PBS and measured using a standard radioimmunoassay as described previously.

The nature of series [2]: Pharmacokinetic parameters in mice after 7 days oral dosing. Format: in vivo. As to conditions: male, BALB/c or Balb/cOlaHsd nude, mouse, plasma, 20 mg/kg qd oral, read-out: AUC24. How it is done: Control mice received vehicle. […] Brain samples (without olfactory bulbs and medulla oblongata) from each group and time point were pooled and homogenized before the analysis. […] Plasma and brain concentration vs. time were evaluated by noncompartmental analysis using WinNonlin® Professional v. 5.2 software (Pharsight Corporation). Brain/plasma ratios were calculated based on AUC0–24 values for plasma and brain.

A further series has as its system subcutaneous VCaP tumors. The series is described as follows: Castration-resistant VCaP xenograft, tumor volume. Type of series: in vivo, castrated nude mice.
A short description of series [3]: Body weight of mice bearing subcutaneous VCaP xenograft tumors. Type of series: in vivo, castrated nude mice. The note with it: enzalutamide 20 mg/kg qd oral, individual animals, vs BW before treatment. How it is done: BALB/c nude male mice (7 weeks old from Charles River, Germany) were subcutaneously injected with 2 million VCaP cells in 100 μL of RPMI-1640 medium and Matrigel (BD) (1:1). Tumor growth was monitored twice weekly by caliper measurements. The volume of the tumor was calculated according to the formula W^2 × L/2 (mm^3), where W is the shorter and L the longer diameter of the tumor. When the average tumor volume reached ~200 mm^3, mice were castrated or SHAM-operated under Avertin anesthesia. […] For all in vivo studies, Macrocol® (Merck) + propylene glycol +5% glucose (50:30:20, v/v/v) was used as a vehicle.

The target in another series is T1, AR(W741L) (Homo sapiens, UniProt P10275, W742L).
T1 sequence (P10275 1-920 W742L): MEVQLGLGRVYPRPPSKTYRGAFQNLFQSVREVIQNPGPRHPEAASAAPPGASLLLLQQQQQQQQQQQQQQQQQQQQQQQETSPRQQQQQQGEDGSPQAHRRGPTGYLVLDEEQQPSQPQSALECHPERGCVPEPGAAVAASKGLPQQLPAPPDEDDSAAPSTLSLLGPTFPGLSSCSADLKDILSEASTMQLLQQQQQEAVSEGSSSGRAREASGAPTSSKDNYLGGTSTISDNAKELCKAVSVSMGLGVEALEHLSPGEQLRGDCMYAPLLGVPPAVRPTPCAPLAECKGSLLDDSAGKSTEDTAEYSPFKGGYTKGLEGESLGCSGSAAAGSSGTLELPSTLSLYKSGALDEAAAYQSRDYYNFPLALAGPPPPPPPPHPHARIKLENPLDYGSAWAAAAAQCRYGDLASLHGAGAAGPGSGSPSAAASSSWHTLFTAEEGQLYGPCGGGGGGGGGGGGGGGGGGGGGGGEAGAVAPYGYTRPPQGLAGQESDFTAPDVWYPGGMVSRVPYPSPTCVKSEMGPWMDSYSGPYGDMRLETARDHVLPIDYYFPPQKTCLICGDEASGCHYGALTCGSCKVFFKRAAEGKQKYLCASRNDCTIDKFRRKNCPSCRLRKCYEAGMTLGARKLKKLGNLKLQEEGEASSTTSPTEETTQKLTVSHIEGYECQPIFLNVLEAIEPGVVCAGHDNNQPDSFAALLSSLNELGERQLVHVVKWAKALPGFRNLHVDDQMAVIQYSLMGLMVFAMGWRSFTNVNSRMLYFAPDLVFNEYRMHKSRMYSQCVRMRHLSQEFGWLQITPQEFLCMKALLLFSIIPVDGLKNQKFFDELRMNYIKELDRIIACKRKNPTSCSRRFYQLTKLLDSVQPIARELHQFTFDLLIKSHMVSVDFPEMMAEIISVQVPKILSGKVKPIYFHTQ

Another series has as its target T2, AR(T877A) (Homo sapiens, UniProt P10275, T878A).
T2 sequence (P10275 1-920 T878A): T1 sequence (P10275 1-920 W742L) with L742W, T878A

Another series deals with T3, AR(F876L) (Homo sapiens, UniProt P10275, F877L).
T3 sequence (P10275 1-920 F877L): T1 sequence (P10275 1-920 W742L) with L742W, F877L

The test system of series [4] is AR nuclear translocation in HS-HEK293 cells. As to conditions: 0.3 or 1.0 μM test compound with 0.3 nM testosterone, HS-HEK293 cells.
Details of series [5]: method as in PMID 15470213. The note with it: CRPC ref 7; cited from earlier work.

Changes are numbered by the printed parent chain. Values joined by “and” are separate entries in the source; they are usually repeats but may differ in a detail not shown here. Equal entries are not always repeated. Where two headings read alike, the source gives them in different places.

As to `CNC(=O)c1ccc(N2C(=S)N(c3cnc(C#N)c(C(F)(F)F)c3)C(=O)C23CCC3)cc1F` [ARN-509, reference compound], the IC50 in the series with VCaP cells (read-out: IC50, androgen-induced VCaP cell proliferation) stood at 420 nM. In [1], the Kp worked out at 0.62.

Turning to `CNC(=O)c1ccc(N2C(=S)N(c3ccc(C#N)c(C(F)(F)F)c3)C(=O)C2(C)C)cc1F` [Enzalutamide, enzalutamide, reference compound], the “effect on serum testosterone levels” value in the series on serum testosterone was “increased significantly”. The AUC in [2] was found to be 479 µg·h/mL. Besides, in the series on subcutaneous VCaP tumors (20 mg/kg oral once daily, 37 days, p < 0.05 vs castrated untreated mice), the “antitumor activity (tumor volume)” value is listed as “inhibition of tumor growth”. Further, in [3], the “Change in body weight (%) d 3” value is 0.0% (2×) and -6.2% and -2.7% and -0.6% and -0.5% and -2.0% and 1.3% and 0.5%; the “Change in body weight (%) d 9” value is 0.4% and 1.7% (2×) and 3.6% and 0.6% and 1.3% and 2.9% and 1.5% and 0.5%; the “Change in body weight (%) d 16” value is 1.8% (2×) and 1.2% and 3.0% and 2.6% and 6.8% and 5.6% and 5.5% and 8.7%; the “Change in body weight (%) d 23” value was 1.0% and -4.8% and -1.4% and 1.8% and -2.2% and -0.9% and -2.9% and -3.0%. Further, in [3], the “Change in body weight (%) d 30” value is 2.1% and -4.0% and -2.7% and 3.0% and 0.9% and 1.9% and -2.0% and -0.9%; the “Change in body weight (%) d 37” value is 5.1% and -0.9% and 0.5% (2×) and 3.6% and 3.5% and 7.2% and 1.3%.

`CC(=O)c1cc(C(=O)N[C@@H](C)Cn2ccc(-c3ccc(C#N)c(Cl)c3)n2)n[nH]1` [ORM-15341]: the “functional activity (agonist/antagonist) on AR(W741L)” value on AR(W741L) was “full antagonists”. In the series on VCaP cells (0.1 nM mibolerone, steroid-depleted medium, 4 days, WST-1, read-out: IC50, androgen-induced VCaP cell proliferation), the IC50 is 170 nM. Besides, the “functional activity (agonist/antagonist) on AR(T877A)” value on AR(T877A) is reported as “full antagonists”. Besides, the “functional activity (agonist/antagonist) on AR(F876L)” value at AR(F876L) is “full antagonists”. The “effect on testosterone-induced nuclear translocation of AR” value in series [4] is “inhibit”.

Regarding `CC(O)(CS(=O)(=O)c1ccc(F)cc1)C(=O)Nc1ccc(C#N)c(C(F)(F)F)c1` (stereo not shown) [bicalutamide, reference compound], the antitumor activity entry with subcutaneous VCaP tumors (20 mg/kg per os, data not shown) is listed as “does not have any antitumor activity”. For the same compound, in [4], the “effect on testosterone-induced nuclear translocation of AR” value was “failed to block”.

Consider `CC(=O)O[C@@]12CO[C@@H]1C[C@H](O)[C@@]1(C)C(=O)[C@H](O)C3=C(C)[C@@H](OC(=O)[C@H](O)[C@@H](NC(=O)OC(C)(C)C)c4ccccc4)C[C@@](O)([C@@H](OC(=O)c4ccccc4)[C@H]21)C3(C)C` [docetaxel], for which the “median prolongation of survival” value in [5] was 2.9 months.
